Experimental findings from patent US4330549A, “Coumarins connected via an oxyalkyl group with a piperidine ring having anti-allergic action” (Boehringer Mannheim GmbH, priority 1979, dated 1982) are described below.

The test system of the first assay is passive cutaneous anaphylactic reaction (PCA). The experiment in a line: Inhibition of passive cutaneous anaphylaxis (PCA) in rats, reaginic antibody to egg albumin. Type of assay: in vivo, rat. The conditions noted are these: Rattus norvegicus, po; dose 3.0 mg/kg (table head: p.o.; method b438: intravenously immediately before the antigen); rats, 6 animals per dose.
In general, inhibition in vivo refers to the share of the control response that was lost under treatment. Higher therefore signals a response far below the control. With `Cc1c(C)c2ccc(OCCCN3CCC(NC(=O)c4ccccc4)CC3)cc2oc1=O` [Example 1, 7-[3-(4-Benzamido-piperidino)-propoxy]-3,4-dimethylcoumarin], the inhibition in vivo at 3 mg/kg was 50%.
On to `Cc1c(C)c2ccc(OCCCN3CCC(NC(=O)c4ccc(F)cc4)CC3)cc2oc1=O` [Example 2a, 3,4-Dimethyl-7-{3-[4-(4-fluoro-benzamido)-piperidino]-propoxy}-coumarin], for which the inhibition in vivo at 3 mg/kg was determined as 59%.
On the same count and under the same terms, under `COc1ccc(C(=O)NC2CCN(CCCOc3ccc4c(C)c(C)c(=O)oc4c3)CC2)cc1` [Example 2b, 3,4-Dimethyl-7-{3-[4-(4-methoxy-benzamido)-piperidino]-propoxy}-coumarin] stands 36%.
The same measure, in the same setting: under `Cc1c(C)c2ccc(OCCCN3CCC(NC(=O)c4ccc(C(C)(C)C)cc4)CC3)cc2oc1=O` [Example 2d, 7-{3-[4-(4-t.-Butyl-benzamido)-piperidino]-propoxy}-3,4-dimethyl-coumarin] stands 52%.
`Cc1cc(=O)oc2ccc(OCCCN3CCC(NC(=O)c4ccccc4)CC3)cc12` [Example 4a, 6-[3-(4-Benzamido-piperidino)-propoxy]-4-methyl-coumarin] displayed an inhibition in vivo at 3 mg/kg of 61%.
Same read-out and setting: then `Cc1c(C)c2ccc(OCCCN3CCC(NC(=O)c4ccc(Cl)cc4)CC3)cc2oc1=O` [Example 6, 7-{3-[4-(4-Chlorobenzamido)-piperidino]-propoxy}-3,4-dimethylcoumarin], with 30%; and `Cc1c(C)c2ccc(OCCCN3CCC(NC(=O)c4cccs4)CC3)cc2oc1=O` [Example 7b], with 23%.
On the same count and under the same terms, under `Cc1cc(=O)[nH]c2ccc(OCCCN3CCC(NC(=O)c4ccccc4)CC3)cc12` [Example 8, 6-[3-(4-Benzamido-piperidino)-propoxy]-4-methyl-2-oxo-1,2-dihydroquinoline] stands 34%; under `Cc1cc(=O)n(C)c2ccc(OCCCN3CCC(NC(=O)c4ccccc4)CC3)cc12` [Example 10, 6-[3-(4-Benzamido-piperidino)-propoxy]-1,4-dimethyl-2-oxo-1,2-dihydroquinoline], 54%.

Staying with this assay, now noted: Rattus norvegicus, po; dose 100.0 mg/kg (table head: p.o.; method b438: intravenously immediately before the antigen); rats, 6 animals per dose; comparison compound.
Molecule `CCN(CC)C(=O)N1CCN(C)CC1` [Diethylcarbamazin, 1-diethylcarbamoyl-4-methylpiperazine, reference compound] yielded an inhibition in vivo at 100 mg/kg of 47%.

The same assay, now with this note: relative to 7-[3-(4-benzamido-piperidino)-propoxy]-3,4-dimethylcoumarin (Example 1); PCA test in vivo in rats.
As for `CCN(CC)C(=O)N1CCN(C)CC1` [Diethylcarbamazin, 1-diethylcarbamoyl-4-methylpiperazine, reference compound], the “times more substance that must be used than of 7-[3-(4-benzamido-piperidino)-propoxy]-3,4-dimethylcoumarin for comparable inhibition of the passive cutaneous anaphylactoid reaction” value is on record as “about 40 times”.
